{"source": "patent US20030129193A1", "about": "(priority 2001, published 2003)", "molecules": {"B1": {"name": "Annexin V: binds to PS with high affinity (protein, UniProt P08758 2-320, looked up)", "Annexin A5": "AQVLRGTVTDFPGFDERADAETLRKAMKGLGTDEESILTLLTSRSNAQRQEISAAFKTLFGRDLLDDLKSELTGKFEKLIVALMKPSRLYDAYELKHALKGAGTNEKVLTEIIASRTPEELRAIKQVYEEEYGSSLEDDVVGDTSGYYQRMLVVLLQANRDPDAGIDEAQVEQDAQALFQAGELKWGTDEEKFITIFGTRSVSHLRKVFDKYMTISGFQIEETIDRETSGNLEQLLLAVVKSIRSIPAYLAETLYYAMKGAGTDDHTLIRVMVSRSEIDLFNIRKEFRKNFATSLYSMIKGDTSGDYKKALLLLCGEDD"}}, "key": {"[1]": {"tested_on": "cancer patients having progressive disease", "conditions": "human, in vivo; cited from earlier work"}, "TNFα": {"tested_on": "TNFα", "conditions": "cited from earlier work"}, "VCAM-1": {"tested_on": "VCAM-1", "experiment": "FACS for upregulation of VCAM-1", "format": "cell-based, mouse", "protocol": "(§1) Mouse endothelial cells were seeded in 48 well tissue culture plates and allowed to adhere overnight. Cells were stimulated with TNFα at the following concentrations: 500 U/ml; 100 U/ml; 20 U/ml; 4 U/ml; 0.8 U/ml; 0.16 U/ml; and with medium only.\nEndothelial cells were then investigated for upregulation of the adhesion molecule VCAM-1 by fluorescence activated cell stain (FACS). To this end, cells were stained with an antibody against murine VCAM-1, followed by an appropriate FITC-conjugated secondary antibody. Fluorescent cells were detected on a flow cytometer (Becton Dickinson. San Jose, Calif.)."}, "Mouse endothelial cells": {"tested_on": "Mouse endothelial cells", "experiment": "Cell based two stage coagulation assay", "protocol": "as §1\nEndothelial cells were also tested for coagulant activity in a cell based two stage coagulation assay. After incubation with TNFα, cells were washed and incubated with coagulation factor mix (0.5 μg/ml factor VIIa in a mix containing 2.8 μg/ml factor IX, 3.4 μg/ml factor X, 50 μM phospholipids, in calcium buffer). The supernatant of wells was transferred into a 96 well ELISA plate. Substrate S2765 was added and Factor Xa generation measured."}, "[2]": {"tested_on": "tissue factor on HUVEC cells", "experiment": "FACS analysis of tissue factor expression", "format": "cell-based, human", "conditions": "6 h at 37°; TNFα 500 U/ml, LPS 10 μg/ml, VEGF 1 nM", "protocol": "To analyze tissue factor expression on the surface of endothelial cells, HUVEC cells were incubated with TNFα (500 U/ml), LPS (10 μg/ml) or vascular endothelial growth factor (VEGF, 1 nM) alone or in combination for 6 h at 37°. Cells were then detached and stained for surface expression of human tissue factor with a sheep-anti-human tissue factor antibody (Haemochrom, Essen, Germany) and an appropriate FITC-conjugated secondary antibody. Fluorescent cells were detected on a flow cytometer (Becton Dickinson. San Jose, Calif.)."}, "L540 Hodgkin tumors": {"tested_on": "L540 Hodgkin tumors", "experiment": "Annexin V inhibition of coaguligand-induced thrombosis in vivo", "set-up": "species or system SCID mice", "protocol": "The ability of Annexin V to inhibit coaguligand-induced thrombosis in vivo was examined in L540 Hodgkin-bearing SCID mice.\nFour hours after the last injection mice were anesthetized and perfused with heparinized saline. Tumors were removed, fixed with 4% formalin, paraffin-embedded and stained with hematoxylene-eosin. The number of thrombosed and non-thrombosed blood vessels were counted and the percentage of thrombosis was calculated."}, "[3]": {"tested_on": "Factor X on IL-1α-stimulated bEnd.3 cells", "experiment": "Chromogenic assay of coaguligand-induced Factor Xa formation", "format": "cell-based", "conditions": "10 μg per ml", "protocol": "The ability of Annexin V to affect Factor Xa formation induced by coaguligand was determined by a chromogenic assay. […] Annexin V was added at concentrations ranging from 0.1 to 10 μg/ml and cells were incubated for 30 min. before addition of diluted Proplex T. The amount of Factor Xa generated in the presence or absence of Annexin V was determined. Each treatment was performed in duplicate and repeated at least twice."}}}
{"molecule": "NC(=O)c1nnn(Cc2cc(Cl)c(C(=O)c3ccc(Cl)cc3)c(Cl)c2)c1N", "note": "[CAI, carboxyamidotriazole]", "values": [{"measurement": "disease stabilization, patients", "setting": "[1]", "value": 49, "unit": "%"}]}
{"molecule": "Cc1ccc2c(=O)c3cccc(CC(=O)O)c3oc2c1C", "note": "[DMXAA]", "values": [{"measurement": "effectiveness in inducing TNFα, less than endotoxin", "setting": "TNFα", "value": 20, "unit": "fold"}]}
{"molecule": "TNFα", "values": [{"measurement": "TNFα required for a measurable increase of VCAM-1 expression", "setting": "VCAM-1", "value": 20, "unit": "U/ml"}, {"measurement": "dose lower than for VCAM-1 upregulation", "setting": "Mouse endothelial cells", "value": 125, "unit": "fold"}, {"measurement": "TNFα at which an increase versus negative control could be detected", "setting": "Mouse endothelial cells; Factor Xa generation", "value": "0,16 U/ml"}, {"measurement": "tissue factor expression on the surface of HUVEC", "setting": "[2]", "value": "upregulated tissue factor expression"}]}
{"molecule": "B1", "values": [{"measurement": "coaguligand-induced anti-tumor effects after pre-treatment", "setting": "L540 Hodgkin tumors; 100 μg Annexin V, 2 hours before 40 μg anti-VCAM-1•tTF", "value": "completely abolished"}, {"measurement": "tumor morphology", "setting": "L540 Hodgkin tumors; 100 μg alone", "value": "did not alter tumor morphology"}, {"measurement": "inhibition of factor Xa production", "setting": "[3]", "value": 58, "unit": "%"}]}
